Source: ChEMBL document CHEMBL1629629, “Reassessment of recommended imipenem doses in febrile neutropenic patients with hematological malignancies” (Antimicrob Agents Chemother, 2009)
≈ marks a conversion by molar mass, not a printed value.

What was measured:
[1] = Cmax in febrile neutropenic patient with hematological malignancies at 500 mg administered as 30 mins infusion every 6 hrs; assay type: ADME, organism-based; parameters: dose 500 mg; conditions: human, in vivo, iv
[2] = Renal clearance in febrile neutropenic patient with hematological malignancies at 500 mg administered as 30 mins infusion every 6 hrs; assay type: ADME, organism-based, Kidney; conditions: human, in vivo, iv, read-out: CL_renal (converted)
[3] = Elimination half life in febrile neutropenic patient with hematological malignancies at 500 mg administered as 30 mins infusion every 6 hrs; assay type: ADME, organism-based; conditions: human, in vivo, iv
[4] = system: Homo sapiens; test: T>MIC in febrile neutropenic patient with hematological malignancies at 500 mg administered as 30 mins infusion every 6 hrs; assay type: functional
[5] = system: Homo sapiens; test: T>MIC in febrile neutropenic patient with hematological malignancies at 500 mg administered as infusion every 6 hrs; assay type: functional
[6] = T>MIC in febrile neutropenic patient with hematological malignancies at 500 mg administered as infusion every 4 hrs; assay type: functional, Homo sapiens
[7] = system: Homo sapiens; test: T>MIC in febrile neutropenic patient with hematological malignancies at 750 mg administered as 120 mins infusion every 6 hrs; assay type: functional
[8] = system: Pseudomonas aeruginosa; test: Antimicrobial activity against Pseudomonas aeruginosa; assay type: functional
[9] = system: Enterococcus; test: Antimicrobial activity against Enterococcus; assay type: functional
[10] = organism: Homo sapiens; test: T>MIC in febrile neutropenic patient with hematological malignancies at 6 g/day

Cmax [1]: 6600 ng/mL
CL renal [2]: 79.8 mL/min
half-life [3]: 1.43 h
fT>MIC [4]: 53%
fT>MIC [5]: 18%
fT>MIC [6]: 73%
fT>MIC [7]: 58%
MIC90 [8]: 2 µg/mL (≈ 6.68 µM)
MIC90 [9]: 2 µg/mL (≈ 6.68 µM)
fT>MIC [10]: 90%
Compound: C[C@@H](O)[C@H]1C(=O)N2C(C(=O)O)=C(SCCNC=N)C[C@H]12 [IMIPENEM ANHYDROUS]
